# Experimental data: the supplement of paper PMC10307832
# Compound: CC[C@@H]1C(=O)N(C)c2cnc(Nc3ccc(C(=O)NC4CCN(C)CC4)cc3OC)nc2N1C1CCCC1 [BI-2536] + O=C(CCCCCCC(=O)Nc1ccccc1)NO [Vorinostat] (partner 1 µM)
# Assay: relative viability (nuclei count vs DMSO), 5 days (fraction); higher = more cells survive
# Settings: first compound 0.01 µM
# In short: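 Five library-drug doses in √10 steps were combined with a fixed anchor-drug dose, or a single drug was given alone, by pin tool to lung cancer cell lines in 1536-well plates the day after seeding. Nuclei were stained and counted after 5 days. Relative viability is the nuclei count in treated wells over that in vehicle wells, taken as the median of duplicate plates.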
row,Cell Line,relative viability
1,NCI-H522,0.785
2,NCI-H727,1.12
3,NCI-H1650,0.624
4,NCI-H1993,0.665
5,SW 1573,0.677
6,NCI-H838,0.766
7,LCLC-103H,0.767
8,NCI-H520,0.599
9,NCI-H2126,0.8
10,EMC-BAC-2,0.468
11,NCI-H2085,0.855
12,HCC-366,0.336
13,NCI-H1666,0.984
14,NCI-H596,0.644
15,LK-2,0.181
16,NCI-H2087,0.731

row,Cell Line,relative viability
1,SK-MES-1,1.17
2,H3255,0.736
3,COR-L23,0.438
4,COR-L 105,0.959
5,IA-LM,1.07
6,LOU-NH91,0.915
7,ChaGo-K-1,0.764
8,NCI-H2170,0.787
9,HCC-44,1.19
10,SW 900,0.445
11,NCI-H1648,0.331
12,NCI-H1395,0.669
13,NCI-H1793,0.695
14,NCI-H1944,0.623
15,ABC-1,1.22
16,NCI-H358,0.507

# Same assay, conditions: first compound 0.03162 µM
row,Cell Line,relative viability
1,NCI-H522,0.933
2,NCI-H727,1.11
3,NCI-H1650,0.555
4,NCI-H1993,0.425
5,SW 1573,0.437
6,NCI-H838,0.668
7,LCLC-103H,0.776
8,NCI-H520,0.25
9,NCI-H2126,0.832
10,EMC-BAC-2,0.416
11,NCI-H2085,0.77
12,HCC-366,0.347
13,NCI-H1666,1.03
14,NCI-H596,0.664
15,LK-2,0.242
16,NCI-H2087,0.773
17,NCI-H2342,0.705

row,Cell Line,relative viability
1,SK-MES-1,0.934
2,H3255,0.786
3,COR-L23,0.281
4,COR-L 105,0.79
5,IA-LM,1.26
6,LOU-NH91,0.865
7,ChaGo-K-1,0.749
8,NCI-H2170,0.736
9,HCC-44,1.01
10,SW 900,0.598
11,NCI-H1648,0.596
12,NCI-H1395,0.431
13,NCI-H1793,0.352
14,NCI-H1944,0.623
15,ABC-1,1.06
16,NCI-H358,0.138

# Same assay, conditions: first compound 0.1 µM
row,Cell Line,relative viability
1,NCI-H522,0.533
2,NCI-H727,0.797
3,NCI-H1650,0.276
4,NCI-H1993,0.456
5,SW 1573,0.101
6,NCI-H838,0.371
7,LCLC-103H,0.265
8,NCI-H520,0.24
9,NCI-H2126,0.243
10,EMC-BAC-2,0.171
11,NCI-H2085,0.469
12,HCC-366,0.0476
13,NCI-H1666,1.03
14,NCI-H596,0.551
15,LK-2,0.15
16,NCI-H2087,0.229
17,NCI-H2342,0.79

row,Cell Line,relative viability
1,SK-MES-1,0.441
2,H3255,0.447
3,COR-L23,0.135
4,COR-L 105,0.52
5,IA-LM,0.692
6,LOU-NH91,0.443
7,ChaGo-K-1,0.265
8,NCI-H2170,0.159
9,HCC-44,0.847
10,SW 900,0.481
11,NCI-H1648,0.264
12,NCI-H1395,0.285
13,NCI-H1793,0.17
14,NCI-H1944,0.237
15,ABC-1,0.613
16,NCI-H358,0.0931

# Same assay, conditions: first compound 0.3162 µM
row,Cell Line,relative viability
1,NCI-H522,0.277
2,NCI-H727,0.513
3,NCI-H1650,0.169
4,NCI-H1993,0.489
5,SW 1573,0.0801
6,NCI-H838,0.152
7,LCLC-103H,0.168
8,NCI-H520,0.181
9,NCI-H2126,0.218
10,EMC-BAC-2,0.144
11,NCI-H2085,0.231
12,HCC-366,0.0183
13,NCI-H1666,0.504
14,NCI-H596,0.228
15,LK-2,0.104
16,NCI-H2087,0.0706
17,NCI-H2342,0.445

row,Cell Line,relative viability
1,SK-MES-1,0.136
2,H3255,0.519
3,COR-L23,0.0945
4,COR-L 105,0.349
5,IA-LM,0.0844
6,LOU-NH91,0.311
7,ChaGo-K-1,0.182
8,NCI-H2170,0.144
9,HCC-44,0.346
10,SW 900,0.159
11,NCI-H1648,0.189
12,NCI-H1395,0.311
13,NCI-H1793,0.117
14,NCI-H1944,0.139
15,ABC-1,0.418
16,NCI-H358,0.0884

# Same assay, conditions: first compound 1 µM
row,Cell Line,relative viability
1,NCI-H522,0.284
2,NCI-H727,0.4
3,NCI-H1650,0.142
4,NCI-H1993,0.416
5,SW 1573,0.113
6,NCI-H838,0.141
7,LCLC-103H,0.239
8,NCI-H520,0.179
9,NCI-H2126,0.177
10,EMC-BAC-2,0.131
11,NCI-H2085,0.304
12,HCC-366,0.0214
13,NCI-H1666,0.49
14,NCI-H596,0.206
15,LK-2,0.155
16,NCI-H2087,0.124
17,NCI-H2342,0.385
18,SK-MES-1,0.188
19,H3255,0.306
20,COR-L23,0.0882
21,COR-L 105,0.334
22,IA-LM,0.0605
23,LOU-NH91,0.264
24,ChaGo-K-1,0.196
25,NCI-H2170,0.175
